According to ChEMBL document CHEMBL3639280, “2-Phenyl-1-[4-(2-Aminoethoxy)-Benzyl]-Indole and estrogen formulations” (2014):

Target: T1, Estrogen receptor (Homo sapiens, UniProt P03372)
T1 sequence (P03372 whole entry): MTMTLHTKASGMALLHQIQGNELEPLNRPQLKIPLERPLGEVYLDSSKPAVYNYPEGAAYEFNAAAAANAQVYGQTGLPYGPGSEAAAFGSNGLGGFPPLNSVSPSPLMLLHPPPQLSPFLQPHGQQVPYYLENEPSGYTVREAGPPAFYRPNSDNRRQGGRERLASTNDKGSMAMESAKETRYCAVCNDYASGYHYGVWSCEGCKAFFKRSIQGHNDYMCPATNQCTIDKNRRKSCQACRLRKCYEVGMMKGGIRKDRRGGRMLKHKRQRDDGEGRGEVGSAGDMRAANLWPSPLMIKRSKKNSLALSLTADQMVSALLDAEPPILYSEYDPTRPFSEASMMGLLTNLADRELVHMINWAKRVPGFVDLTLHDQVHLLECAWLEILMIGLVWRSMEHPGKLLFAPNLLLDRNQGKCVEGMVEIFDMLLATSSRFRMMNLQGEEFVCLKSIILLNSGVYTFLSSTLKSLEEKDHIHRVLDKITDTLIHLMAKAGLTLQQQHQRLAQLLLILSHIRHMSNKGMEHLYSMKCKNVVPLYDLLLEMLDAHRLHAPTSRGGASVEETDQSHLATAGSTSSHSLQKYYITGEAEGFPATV
Assay: Binding Assay: The competition assay was performed in a 96-well plate (polystyrene*) which binds <2.0% of the total input [3H]-17beta-estradiol and each data point was gathered in triplicate. 100 uG/100 uL of the receptor preparation was aliquoted per well. A saturating dose of 2.5 nM [3H]17beta-estradiol+competitor (or buffer) in a 50 uL volume was added in the preliminary competition when 100x …

## Cc1c(-c2ccc(O)cc2)n(Cc2ccc(OCCN3CC4CCC3C4)cc2)c2ccc(O)cc12 (stereo unspecified)
  IC50: 1 nM
